Test results reported in patent US6413908B1, “Agrochemical surfactant compositions” (Imperial Chemical Industries plc, priority 1997, dated 2002).

What was measured:
Veronica hederffolia = assay: Field test, Cameo (tribenuron-methyl) plus adjuvants in winter wheat, growth reduction; format: in vivo; conditions: spray 0.015% tribenuron-methyl, 0.1% adjuvant in tank mix or none
Experimental: Field tests were carried out on test plots using a completely randomised block design with 4 replicates. The spray volume used was 300 I.ha^−1.
The spray solution contained 0.015% by weight tribenuronethyl and 0.1% adjuvant added to the tank mix. The effectiveness of the herbicides was assessed visually by the % growth reduction of the weeds as compared with untreated weeds.

Veronica hederifolia [1] = assay: Field test, triasulfuron plus adjuvants against weeds in winter wheat; format: in vivo; conditions: triasulfuron 25 g.ha^−1, adjuvant 0.1% by weight or none; visual, percentage of plants affected, 5 weeks after treatment
Experimental: (§1) Field tests were carried out on test plots using a completely randomised block design with 4 replicates. […] In such a situation, it is an important benefit if the herbicide can limit the growth of the weeds (inhibition) e.g. by use of an adjuvant. In this Example, the effect of adjuvants on the activity of triasulfuron against G aparine and V hederifolia growing naturally as weeds in winter wheat was examined. […] G aparine and V hederifolia were used in evaluating herbicidal activity because of their regular distribution. […] The results of the runs using no adjuvant and those for combined adjuvants and herbicide are set out in Table 1 below.

Galium aparine [2] = assay: as above; format: in vivo; conditions: triasulfuron 25 g.ha^−1, adjuvant 0.1% by weight or none; visual, percentage of plants affected, 5 weeks after treatment
Experimental: as §1

Galium aparine [3] = conditions: background statement, no adjuvant; cited from earlier work
Veronica hederifolia [4] = conditions: background statement, no adjuvant; cited from earlier work

Row | Molecule | Inhibition (%), growth reduction of the weeds as compared with untreated weeds (Veronica hederffolia) [%] | Chlorosis, Veronica hederifolia (5 weeks) (Veronica hederifolia [1]) [%] | Inhibition, Veronica hederifolia (5 weeks) (Veronica hederifolia [1]) [%] | Necrosis, Veronica hederifolia (5 weeks) (Veronica hederifolia [1]) [%] | Chlorosis, Galium aparine (5 weeks) (Galium aparine [2]) [%] | Inhibition, Galium aparine (5 weeks) (Galium aparine [2]) [%] | Necrosis, Galium aparine (5 weeks) (Galium aparine [2]) [%] | known activity against cleavers (Galium aparine) (Galium aparine [3]) | known activity against ivy-leaved speedwell (Veronica hederifolia) (Veronica hederifolia [4])
1 | nonyl phenol 8-ethoxylate [NP8] | 33 | 40 | 60 | 30 | 30 | 40 | 10 |  | 
2 | COc1nc(C)nc(NC(=O)NS(=O)(=O)c2ccccc2OCCCl)n1 [triasulfuron] |  | 10 | 40 | 10 | 30 | 50 | 10 | limited activity | limited activity
